# Data as given in patent publication US20220017516A1, “LOX INHIBITORS” (THE INSTITUTE OF CANCER RESEARCH: ROYAL CANCER HOSPITAL, priority 2018, published 2022).
# Tests used:
# Format in all cases: in vivo, mice
# [1] = system: MMTV-PyMT mammary tumours; assay: MMTV-PyMT transgenic mouse breast cancer model, primary tumour volume; conditions: T/C of average tumour volume; 200 mg/kg po qd; p<0.05
# Description: (§1) All procedures involving animals were approved by the Animal Welfare and Ethical Review Body of the Institute of Cancer Research and Cancer Research UK Manchester Institute in accordance with National Home Office regulations under the Animals (Scientific Procedures) Act 1986 and according to the guidelines of the Committee of the National Cancer Research Institute Tumour size was determined by caliper measurements of tumour length, width and depth and volume was calculated as volume=0.5236×length×width×depth (mm).
# MMTV-PyMT (Guy et al, 1992) (FVB) female mice were randomized by non-statistical methods to LOX inhibitor treatment groups from day 70 post-birth, when animals had no detectable tumour. Mice were treated daily by oral gavage with LOX inhibitor in vehicle, or daily vehicle (5% DMSO/2.5% Tween20 in water) by oral gavage. Tumour size was determined unblinded by caliper measurements of tumour length, width and depth and volume was calculated as 0.5236×length×width×depth (mm). […]
# (§2) For therapeutic efficacy assessment, the ratio of average tumour volume between compound treated and vehicle control treated (T/C) is calculated. […] The efficacy of LOX inhibitors described in this invention, as measured by T/C in breast cancer models is shown in Table 4 and is significant (p<0.05) for all the data presented.
# [2] = system: MMTV-PyMT lung metastases; assay: MMTV-PyMT transgenic mouse breast cancer model, lung metastases quantification; conditions: T/C of average lung metastases number; 200 mg/kg po qd; p<0.05
# Description: MMTV-PyMT (Guy et al, 1992) (FVB) female mice were randomized by non-statistical methods to LOX inhibitor treatment groups from day 70 post-birth, when animals had no detectable tumour. Mice were treated daily by oral gavage with LOX inhibitor in vehicle, or daily vehicle (5% DMSO/2.5% Tween20 in water) by oral gavage. Tumour size was determined unblinded by caliper measurements of tumour length, width and depth and volume was calculated as 0.5236×length×width×depth (mm). In all experiments, mice were humanely killed and mammary tumours and lungs were collected when the primary tumours reached ethical limits or signs of ill health.
# For lung metastases quantification, all mouse tissue samples were fixed in 10% formalin (Sigma) and embedded in paraffin. Samples were sectioned and hematoxylin and eosin (H&E) stained. Samples were imaged with a Leica SCN400 slide scanner. […] Lung metastases number was counted and area was measured using ImageScope. […] The ratio of average metastases surface between compound treated and vehicle control treated (T/C) is calculated. The ratio of average metastases numbers between compound treated and vehicle control treated (T/C) is also calculated. […] The antimetastatic efficacy of LOX inhibitors described in this invention, as measured by T/C in a model of breast cancer metastasising to lungs is shown in Table 4 and is significant (p<0.05) for all the data presented.
# [3] = system: MDA-MB-231 human breast adenocarcinoma; assay: MDA-MB-231 xenografts, primary tumour volume; conditions: T/C of average tumour volume; 200 mg/kg po qd; p<0.05
# Description: as §1
# MDA-MB-231 xenografts. […] Tumours and weights are measured twice weekly using calipers and the animals can be imaged using non invasive method by bioluminescence using IVIS 200 imaging machine, weekly using 150 mg/kg luciferin administrate intraperitoneal or subcutaneous. […] Frozen samples kept at −80 degree centigrade until being analyzed and the fixed samples stained according to desired marker.
# as §2
smiles,measurement,setting,value
CCOc1ccc(N2C[C@@H]3C[C@H]2CN3C(=O)CS(=O)(=O)CCN)cc1 [drawing 226],MMT-PyMT breast transgenic model - primary tumour (T/C),[1],0.6
same,MMT-PyMT breast transgenic model - metastases a) Count (T/C),[2],a) 0.14
same,MDA-MB-231 human breast adenocarcinoma - primary tumour (T/C),[3],0.54
